In the kinase profiling compilation of Christmann-Franck et al. (2016):
Several values for one entry are separate records, joined by “and”; a condition that tells them apart may be missing. Equal values may be shown once.

Experiments:
Experiment in all cases: radiometric filter-binding kinase assay, Kinase HotSpot
Conditions in all cases: compound 0.5 µM; ATP 10 µM
MAP4K2 (human) = MAP4K2 (human) (UniProt Q12851)
PRKD1 (human) = PRKD1 (human) (UniProt Q15139)
EPHA8 (human) = EPHA8 (human) (UniProt P29322)
Chain of EPHA8 (human) (P29322 whole entry, looked up): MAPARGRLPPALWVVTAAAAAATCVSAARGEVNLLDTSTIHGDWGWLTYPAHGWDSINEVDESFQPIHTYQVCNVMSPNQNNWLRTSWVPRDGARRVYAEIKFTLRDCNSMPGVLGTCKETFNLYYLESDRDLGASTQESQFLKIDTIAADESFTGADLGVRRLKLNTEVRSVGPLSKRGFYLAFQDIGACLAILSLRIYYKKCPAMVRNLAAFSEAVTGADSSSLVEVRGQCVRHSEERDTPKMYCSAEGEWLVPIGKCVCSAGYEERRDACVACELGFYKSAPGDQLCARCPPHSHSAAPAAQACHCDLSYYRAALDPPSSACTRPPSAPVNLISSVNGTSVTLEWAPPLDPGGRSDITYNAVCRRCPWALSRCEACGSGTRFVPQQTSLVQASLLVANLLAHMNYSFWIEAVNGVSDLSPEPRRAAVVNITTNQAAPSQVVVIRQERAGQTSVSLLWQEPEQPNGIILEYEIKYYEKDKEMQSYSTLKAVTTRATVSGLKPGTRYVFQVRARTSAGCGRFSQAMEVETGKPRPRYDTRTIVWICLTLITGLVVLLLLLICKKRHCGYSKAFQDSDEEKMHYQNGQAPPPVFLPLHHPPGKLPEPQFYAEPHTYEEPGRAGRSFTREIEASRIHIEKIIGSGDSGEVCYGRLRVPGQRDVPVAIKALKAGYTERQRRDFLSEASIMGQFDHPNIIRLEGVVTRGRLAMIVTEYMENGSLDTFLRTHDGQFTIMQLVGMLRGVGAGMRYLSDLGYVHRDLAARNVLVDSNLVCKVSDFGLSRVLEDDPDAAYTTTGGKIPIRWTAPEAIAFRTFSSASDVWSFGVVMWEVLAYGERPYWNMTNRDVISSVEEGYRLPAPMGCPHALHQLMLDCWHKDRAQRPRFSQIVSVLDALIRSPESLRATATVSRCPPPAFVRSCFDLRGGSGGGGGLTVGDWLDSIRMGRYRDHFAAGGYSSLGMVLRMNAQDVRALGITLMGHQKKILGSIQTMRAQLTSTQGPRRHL

HIPK3 (human) = HIPK3 (human) (UniProt Q9H422)
PRKCH (human) = PRKCH (human) (UniProt P24723)
INSR (human) = INSR (human) (UniProt P06213)
TYRO3 (human) = TYRO3 (human) (UniProt Q06418)
NEK6 (human) = NEK6 (human) (UniProt Q9HC98)
CHEK2 (human) = CHEK2 (human) (UniProt O96017)
TNK2 (human) = TNK2 (human) (UniProt Q07912)
MAPKAPK2 (human) = MAPKAPK2 (human) (UniProt P49137)
SYK (human) = SYK (human) (UniProt P43405)
JAK3 JH1 JH2 (human) = JAK3 JH1 JH2 (human) (UniProt P52333)
ADRBK2 (human) = ADRBK2 (human) (UniProt P35626)
PHKG2 (human) = PHKG2 (human) (UniProt P15735)
MELK (human) = MELK (human) (UniProt Q14680)
MAP3K5 (human) = MAP3K5 (human) (UniProt Q99683)
EPHA7 (human) = EPHA7 (human) (UniProt Q15375)
NTRK3 (human) = NTRK3 (human) (UniProt Q16288)
STK24 (human) = STK24 (human) (UniProt Q9Y6E0)
DAPK1 (human) = DAPK1 (human) (UniProt P53355)
CSK (human) = CSK (human) (UniProt P41240)
Chain of CSK (human) (P41240 whole entry, looked up): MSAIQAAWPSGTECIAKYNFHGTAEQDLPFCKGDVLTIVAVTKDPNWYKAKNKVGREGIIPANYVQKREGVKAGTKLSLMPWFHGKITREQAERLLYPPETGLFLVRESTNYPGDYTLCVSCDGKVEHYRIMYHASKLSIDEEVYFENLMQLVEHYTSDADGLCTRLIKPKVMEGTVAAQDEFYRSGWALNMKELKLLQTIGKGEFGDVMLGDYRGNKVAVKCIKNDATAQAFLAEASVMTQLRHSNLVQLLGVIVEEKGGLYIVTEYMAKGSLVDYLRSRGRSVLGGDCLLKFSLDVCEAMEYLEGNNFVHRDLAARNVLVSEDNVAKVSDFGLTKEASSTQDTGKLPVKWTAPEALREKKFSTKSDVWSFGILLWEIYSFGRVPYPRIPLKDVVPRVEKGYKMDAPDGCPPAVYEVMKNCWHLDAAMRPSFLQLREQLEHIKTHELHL

CDK9 CCNT1 (human) = CDK9 CCNT1 (human) (UniProt P50750+O60563)
CDK9 CCNK (human) = CDK9 CCNK (human) (UniProt O75909+P50750)
Chain of CDK9 CCNK (human) (O75909 whole entry, looked up): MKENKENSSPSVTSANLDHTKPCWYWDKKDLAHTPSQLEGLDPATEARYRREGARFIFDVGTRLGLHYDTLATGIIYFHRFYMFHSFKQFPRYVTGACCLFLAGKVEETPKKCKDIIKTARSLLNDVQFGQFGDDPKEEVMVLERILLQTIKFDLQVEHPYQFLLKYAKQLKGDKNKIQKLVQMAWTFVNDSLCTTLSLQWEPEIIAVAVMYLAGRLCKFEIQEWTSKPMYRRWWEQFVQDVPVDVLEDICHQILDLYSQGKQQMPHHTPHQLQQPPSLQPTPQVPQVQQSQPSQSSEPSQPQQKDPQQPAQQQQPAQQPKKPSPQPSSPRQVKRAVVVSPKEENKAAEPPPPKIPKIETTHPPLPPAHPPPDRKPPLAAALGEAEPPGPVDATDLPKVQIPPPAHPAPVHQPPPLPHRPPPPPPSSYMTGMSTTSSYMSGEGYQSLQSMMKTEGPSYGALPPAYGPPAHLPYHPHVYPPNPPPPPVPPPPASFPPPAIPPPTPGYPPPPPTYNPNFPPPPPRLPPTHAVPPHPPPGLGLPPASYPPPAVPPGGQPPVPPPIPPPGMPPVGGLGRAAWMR
Chain of CDK9 CCNK (human) (P50750 whole entry, looked up): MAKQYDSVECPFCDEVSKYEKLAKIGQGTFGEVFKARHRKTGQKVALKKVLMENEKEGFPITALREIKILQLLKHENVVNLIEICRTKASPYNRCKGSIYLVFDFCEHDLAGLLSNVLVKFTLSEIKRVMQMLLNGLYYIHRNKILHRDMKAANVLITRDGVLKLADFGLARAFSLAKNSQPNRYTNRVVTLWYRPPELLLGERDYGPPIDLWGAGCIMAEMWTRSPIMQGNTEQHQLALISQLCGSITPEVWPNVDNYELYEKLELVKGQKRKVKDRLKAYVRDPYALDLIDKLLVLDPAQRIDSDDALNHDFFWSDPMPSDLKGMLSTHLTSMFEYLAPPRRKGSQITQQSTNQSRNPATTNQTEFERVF

EPHA4 (human) = EPHA4 (human) (UniProt P54764)
Chain of EPHA4 (human) (P54764 whole entry, looked up): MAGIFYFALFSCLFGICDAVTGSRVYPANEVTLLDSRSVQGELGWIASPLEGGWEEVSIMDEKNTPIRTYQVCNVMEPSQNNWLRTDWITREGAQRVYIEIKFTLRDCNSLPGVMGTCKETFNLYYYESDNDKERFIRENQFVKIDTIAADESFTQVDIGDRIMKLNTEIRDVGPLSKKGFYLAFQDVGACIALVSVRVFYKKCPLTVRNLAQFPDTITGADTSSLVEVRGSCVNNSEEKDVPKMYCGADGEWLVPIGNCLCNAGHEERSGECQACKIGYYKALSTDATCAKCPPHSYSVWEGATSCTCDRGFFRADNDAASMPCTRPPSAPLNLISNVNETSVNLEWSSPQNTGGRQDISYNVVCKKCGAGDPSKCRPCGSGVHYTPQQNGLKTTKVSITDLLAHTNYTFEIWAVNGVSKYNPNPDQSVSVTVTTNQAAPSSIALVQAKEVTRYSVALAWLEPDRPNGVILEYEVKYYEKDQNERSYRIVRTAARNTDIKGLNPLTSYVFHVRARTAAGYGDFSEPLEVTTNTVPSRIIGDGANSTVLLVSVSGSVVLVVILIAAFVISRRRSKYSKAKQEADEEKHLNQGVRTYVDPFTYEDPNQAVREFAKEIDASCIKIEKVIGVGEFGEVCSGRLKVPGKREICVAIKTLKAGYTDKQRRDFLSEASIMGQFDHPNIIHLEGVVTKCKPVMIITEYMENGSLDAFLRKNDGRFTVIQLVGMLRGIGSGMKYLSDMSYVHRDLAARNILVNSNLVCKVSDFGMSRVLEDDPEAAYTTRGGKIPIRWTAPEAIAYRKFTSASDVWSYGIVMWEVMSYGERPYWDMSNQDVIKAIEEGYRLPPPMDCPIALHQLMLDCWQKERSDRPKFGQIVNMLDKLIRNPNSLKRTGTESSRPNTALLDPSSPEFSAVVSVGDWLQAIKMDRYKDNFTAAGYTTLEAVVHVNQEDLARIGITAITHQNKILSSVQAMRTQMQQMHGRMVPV

KIT (human) = KIT (human) (UniProt P10721)
PAK7 (human) = PAK7 (human) (UniProt Q9P286)
CDK1 CCNA2 (human) = CDK1 CCNA2 (human) (UniProt P06493+P20248)
MATK (human) = MATK (human) (UniProt P42679)
Chain of MATK (human) (P42679 whole entry, looked up): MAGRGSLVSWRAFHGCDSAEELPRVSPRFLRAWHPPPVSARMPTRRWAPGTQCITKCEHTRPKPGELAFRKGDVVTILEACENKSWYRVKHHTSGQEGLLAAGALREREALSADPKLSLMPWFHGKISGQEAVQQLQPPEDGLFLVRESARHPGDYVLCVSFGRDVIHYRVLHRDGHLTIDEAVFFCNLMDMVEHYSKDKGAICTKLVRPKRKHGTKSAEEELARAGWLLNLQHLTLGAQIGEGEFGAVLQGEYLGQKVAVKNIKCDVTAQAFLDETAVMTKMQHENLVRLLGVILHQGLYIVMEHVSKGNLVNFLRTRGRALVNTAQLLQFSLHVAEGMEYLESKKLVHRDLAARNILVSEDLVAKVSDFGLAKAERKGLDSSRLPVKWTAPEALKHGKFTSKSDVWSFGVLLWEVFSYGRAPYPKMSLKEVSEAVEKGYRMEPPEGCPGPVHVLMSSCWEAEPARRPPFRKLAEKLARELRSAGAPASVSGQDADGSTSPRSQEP

NUAK1 (human) = NUAK1 (human) (UniProt O60285)
YES1 (human) = YES1 (human) (UniProt P07947)
Chain of YES1 (human) (P07947 whole entry, looked up): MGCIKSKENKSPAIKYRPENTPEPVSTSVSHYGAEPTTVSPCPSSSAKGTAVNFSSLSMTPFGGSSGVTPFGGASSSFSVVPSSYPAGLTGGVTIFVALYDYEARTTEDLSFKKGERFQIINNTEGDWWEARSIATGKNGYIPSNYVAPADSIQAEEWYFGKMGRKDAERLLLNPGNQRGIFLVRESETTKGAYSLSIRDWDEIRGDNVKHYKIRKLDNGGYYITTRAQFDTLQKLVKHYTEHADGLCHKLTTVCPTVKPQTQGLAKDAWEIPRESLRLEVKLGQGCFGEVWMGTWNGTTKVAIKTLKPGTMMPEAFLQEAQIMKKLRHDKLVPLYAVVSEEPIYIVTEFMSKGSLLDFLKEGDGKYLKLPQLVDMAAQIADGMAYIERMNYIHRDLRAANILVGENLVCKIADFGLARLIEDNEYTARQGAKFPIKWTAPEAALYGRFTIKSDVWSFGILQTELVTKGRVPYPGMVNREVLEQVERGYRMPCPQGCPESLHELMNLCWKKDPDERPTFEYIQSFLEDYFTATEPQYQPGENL

DMPK (human) = DMPK (human) (UniProt Q09013)
PIM2 (human) = PIM2 (human) (UniProt Q9P1W9)
STK3 (human) = STK3 (human) (UniProt Q13188)
PRKG1 (human) = PRKG1 (human) (UniProt Q13976)
BMX (human) = BMX (human) (UniProt P51813)
STK39 (human) = STK39 (human) (UniProt Q9UEW8)
[1] = target: JAK1 JH1 catalytic (human) (UniProt P23458)
AURKB (human) = AURKB (human) (UniProt Q96GD4)
LRRK2 (human) = LRRK2 (human) (UniProt Q5S007)
SGK3 (human) = SGK3 (human) (UniProt Q96BR1)
GRK5 (human) = GRK5 (human) (UniProt P34947)
Chain of GRK5 (human) (P34947 whole entry, looked up): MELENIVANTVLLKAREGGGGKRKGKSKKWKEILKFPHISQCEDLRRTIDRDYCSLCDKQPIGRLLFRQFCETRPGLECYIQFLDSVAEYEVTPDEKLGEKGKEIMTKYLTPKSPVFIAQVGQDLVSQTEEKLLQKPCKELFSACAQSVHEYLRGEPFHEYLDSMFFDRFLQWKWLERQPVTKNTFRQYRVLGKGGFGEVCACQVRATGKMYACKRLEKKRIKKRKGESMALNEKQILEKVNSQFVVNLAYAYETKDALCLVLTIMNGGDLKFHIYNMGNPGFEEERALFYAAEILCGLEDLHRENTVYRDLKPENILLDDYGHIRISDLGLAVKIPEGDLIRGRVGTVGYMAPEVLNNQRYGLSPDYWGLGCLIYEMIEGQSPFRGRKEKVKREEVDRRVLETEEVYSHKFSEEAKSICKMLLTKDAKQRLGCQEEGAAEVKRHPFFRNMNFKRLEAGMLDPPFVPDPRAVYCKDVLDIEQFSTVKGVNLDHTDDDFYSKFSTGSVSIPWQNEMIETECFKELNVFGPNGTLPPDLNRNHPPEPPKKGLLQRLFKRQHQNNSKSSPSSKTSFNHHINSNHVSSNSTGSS

SMILES: CCCCc1c(-c2ccc(OC)cc2)[nH]c2nccnc12
- residual activity (MAP4K2 (human)): 65.1%
- residual activity (PRKD1 (human)): 92.9%
- residual activity (EPHA8 (human)): 103%
- residual activity (HIPK3 (human)): 99.9%
- residual activity (PRKCH (human)): 103%
- residual activity (INSR (human)): 97.6%
- residual activity (TYRO3 (human)): 98.6%
- residual activity (NEK6 (human)): 111%
- residual activity (CHEK2 (human)): 72.8%
- residual activity (TNK2 (human)): 51.2%
- residual activity (MAPKAPK2 (human)): 90.2%
- residual activity (SYK (human)): 47.5%
- residual activity (JAK3 JH1 JH2 (human)): 92.8%
- residual activity (ADRBK2 (human)): 95.6%
- residual activity (PHKG2 (human)): 106%
- residual activity (MELK (human)): 84.4%
- residual activity (MAP3K5 (human)): 95%
- residual activity (EPHA7 (human)): 98%
- residual activity (NTRK3 (human)): 84.4%
- residual activity (STK24 (human)): 87.3%
- residual activity (DAPK1 (human)): 90.6%
- residual activity (CSK (human)): 87%
- residual activity (CDK9 CCNT1 (human)): 55.2%
- residual activity (CDK9 CCNK (human)): 56.9%
- residual activity (EPHA4 (human)): 85.5%
- residual activity (KIT (human)): 82.9%
- residual activity (PAK7 (human)): 88.1%
- residual activity (CDK1 CCNA2 (human)): 65.4%
- residual activity (MATK (human)): 101%
- residual activity (NUAK1 (human)): 25%
- residual activity (YES1 (human)): 45.7%
- residual activity (DMPK (human)): 84.3%
- residual activity (PIM2 (human)): 115%
- residual activity (STK3 (human)): 87%
- residual activity (PRKG1 (human)): 102% and 92.7%
- residual activity (BMX (human)): 82.2%
- residual activity (STK39 (human)): 77.8%
- residual activity [1]: 67.1%
- residual activity (AURKB (human)): 64.5%
- residual activity (LRRK2 (human)): 83%
- residual activity (SGK3 (human)): 98.6%
- residual activity (GRK5 (human)): 105%

SMILES: COc1cc2ncnc(Nc3ccc(OCc4ccccc4)cc3)c2cc1OC
- residual activity (MAP4K2 (human)): 114%
- residual activity (PRKD1 (human)): 101%
- residual activity (EPHA8 (human)): 102%
- residual activity (HIPK3 (human)): 85.3%
- residual activity (PRKCH (human)): 97.2%
- residual activity (INSR (human)): 100%
- residual activity (TYRO3 (human)): 86.9%
- residual activity (NEK6 (human)): 97.6%
- residual activity (CHEK2 (human)): 14.2%
- residual activity (TNK2 (human)): 53.1%
- residual activity (MAPKAPK2 (human)): 106%
- residual activity (SYK (human)): 93.1%
- residual activity (JAK3 JH1 JH2 (human)): 108%
- residual activity (ADRBK2 (human)): 99.6%
- residual activity (PHKG2 (human)): 97.4%
- residual activity (MELK (human)): 102%
- residual activity (MAP3K5 (human)): 97.8%
- residual activity (EPHA7 (human)): 97%
- residual activity (NTRK3 (human)): 93.8%
- residual activity (STK24 (human)): 104%
- residual activity (DAPK1 (human)): 98.5%
- residual activity (CSK (human)): 72.5%
- residual activity (CDK9 CCNT1 (human)): 94.5%
- residual activity (CDK9 CCNK (human)): 103%
- residual activity (EPHA4 (human)): 98.5%
- residual activity (KIT (human)): 63%
- residual activity (PAK7 (human)): 99.6%
- residual activity (CDK1 CCNA2 (human)): 97.2%
- residual activity (MATK (human)): 97.5%
- residual activity (NUAK1 (human)): 94.8%
- residual activity (YES1 (human)): 36%
- residual activity (DMPK (human)): 104%
- residual activity (PIM2 (human)): 97.6%
- residual activity (STK3 (human)): 97.6%
- residual activity (PRKG1 (human)): 90.3% and 99.3%
- residual activity (BMX (human)): 89.7%
- residual activity (STK39 (human)): 95.8%
- residual activity [1]: 101%
- residual activity (AURKB (human)): 50.3%
- residual activity (LRRK2 (human)): 92.2%
- residual activity (SGK3 (human)): 105%
- residual activity (GRK5 (human)): 105%

SMILES: CN(C)CCCn1cc(C2=C(c3c[nH]c4ccccc34)C(=O)NC2=O)c2ccccc21
- residual activity (MAP4K2 (human)): 94.2%
- residual activity (PRKD1 (human)): 71.6%
- residual activity (EPHA8 (human)): 103%
- residual activity (HIPK3 (human)): 102%
- residual activity (PRKCH (human)): 7.67%
- residual activity (INSR (human)): 88.9%
- residual activity (TYRO3 (human)): 97.2%
- residual activity (NEK6 (human)): 96.3%
- residual activity (CHEK2 (human)): 68.5%
- residual activity (TNK2 (human)): 94.7%
- residual activity (MAPKAPK2 (human)): 85.4%
- residual activity (SYK (human)): 90%
- residual activity (JAK3 JH1 JH2 (human)): 81.5%
- residual activity (ADRBK2 (human)): 99%
- residual activity (PHKG2 (human)): 97.9%
- residual activity (MELK (human)): 42%
- residual activity (MAP3K5 (human)): 90.2%
- residual activity (EPHA7 (human)): 97%
- residual activity (NTRK3 (human)): 20.2%
- residual activity (STK24 (human)): 52.9%
- residual activity (DAPK1 (human)): 87.9%
- residual activity (CSK (human)): 97%
- residual activity (CDK9 CCNT1 (human)): 65.3%
- residual activity (CDK9 CCNK (human)): 60.3%
- residual activity (EPHA4 (human)): 88.2%
- residual activity (KIT (human)): 69.5%
- residual activity (PAK7 (human)): 92.8%
- residual activity (CDK1 CCNA2 (human)): 100%
- residual activity (MATK (human)): 100%
- residual activity (NUAK1 (human)): 25.9%
- residual activity (YES1 (human)): 84.6%
- residual activity (DMPK (human)): 94.7%
- residual activity (PIM2 (human)): 64.1%
- residual activity (STK3 (human)): 44.2%
- residual activity (PRKG1 (human)): 38.3% and 59.3%
- residual activity (BMX (human)): 101%
- residual activity (STK39 (human)): 91.9%
- residual activity [1]: 88.7%
- residual activity (AURKB (human)): 86.6%
- residual activity (LRRK2 (human)): 89.8%
- residual activity (SGK3 (human)): 72.8%
- residual activity (GRK5 (human)): 71.6%
